In patent US20100048597A1 (Novartis AG, priority 2006, published 2010):

Experiments:
neointima formation = details: rats; cited from earlier work
CDK5 = CDK5 (Homo sapiens, UniProt Q00535); experiment: CDK5 kinase assay (Table F); format: biochemical
CDK4 = CDK4 (Homo sapiens, UniProt P11802); experiment: CDK4 kinase assay (Table F); format: biochemical
CDK1/cyclinB = target: T1, CDK1/cyclinB (Homo sapiens, UniProt P06493); experiment: CDK1/cyclinB kinase assay, IMAP fluorescence polarization; format: biochemical; details: read-out: CDK1 IC50
T1 construct: purchased Millipore
How it was run: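 IMAP fluorescence polarization assay on recombinant purified enzyme, compounds at final 1% DMSO. Reaction run 2 h at room temperature, stopped, held 1 h more before reading polarization.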

CDK2/cyclinA = target: T2, CDK2/cyclinA (Homo sapiens, UniProt P24941); experiment: CDK2/cyclinA kinase assay, IMAP fluorescence polarization; format: biochemical
T2 construct: purchased Millipore
How it was run: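 Recombinant purified enzyme reactions run 2 hours at room temperature with 1% DMSO final. Stopped with 1× Developer buffer (100% A) and IMAP beads 1/400, then 1 hour more before fluorescence polarization read. IC50 from mP values versus log concentration.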

CDK7/cyclinH/MAT1 = target: T3, CDK7/cyclinH/MAT1 (Homo sapiens, UniProt P50613); experiment: CDK7/cyclinH/Mat1 kinase assay, IMAP fluorescence polarization; format: biochemical
T3 construct: purchased Millipore
Experimental: Kinase assays were performed on recombinant purified enzymes using the non-radioactive IMAP fluorescence polarization assay format.
Compound stocks were prepared and diluted in DMSO and were added to kinase reactions at a 1/100 dilution for a final concentration of 1% DMSO. The components were added together to final concentrations listed in the tables below and incubated for two hours at room temperature.
The reactions were stopped by addition of stop solution.
CDK9/CDK1/CDK7: final stop concentration is 1× Developer buffer (85% A/15% B), IMAP beads 1/400
The samples were allowed to incubate for one more hour at room temperature and then the fluorescence polarization was measured. The plate normalized millipolarization (mP) values were plotted against the log of compound concentration for each compound and IC50 values were calculated using the spotfire IC50 calculator and confirmed by visual analysis.

[1] = system: RNA Polymerase II CTD Serine2 Phosphorylation; experiment: H5 (Ser2) Ab High Content Screen: RNA Polymerase II CTD Serine2 Phosphorylation Assay in Hep3B cells; format: cell-based; details: Homo sapiens, 2 hours with compound, H5 antibody staining
Experimental: H5 (also referred as Ser2) Ab High Content Screen: RNA Polymerase II CTD Serine2 Phosphorylation Assay
1. Cells are plated into 384 well plates: 30 μl of Hep3B cells (4,000 cells/30 μl) in DMEM with 3% FBS are plated into wells of a tissue culture treated clear bottomed 384 well plate. Cells are allowed to adhere during an overnight incubation.
2. Cells are treated with compounds for two hours: 10 μl of DMEM with 3% FBS is added to each well with a final concentration of DMSO equal to 1%. Cells are incubated with compounds for 2 hours.
3. Cells are fixed and permeabilized. Cells are washed with 30 mM HEPES pH=7.3 then fixed in 4% paraformaldehyde in 30 mM HEPES pH=7.3 for one hour at room temperature. The fix is removed by washing the cells with Tris buffered saline (TBS) and the cells are permeabilized by incubation in TBS with 0.5% triton X-100 for 30 minutes at room temperature. Triton is removed by washing the cells with TBS.
4. […] Incubate primary H5 Ab (1/250 ) overnight at 4 degrees in TBS with 1% BSA and 0.1% Tween-20. The next day wash cells with TBS. […] Wash cells with PBS.
5. Measure staining using the In-cell Analyzer system from GE Healthcare.

CDK9/cyclinT1 = target: T4, CDK9/cyclinT1 (Homo sapiens, UniProt P50750); experiment: CDK9/cyclinT1 kinase assay, IMAP fluorescence polarization; format: biochemical
T4 construct: purchased Millipore
How it was run: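 Recombinant purified enzyme complexes assayed by IMAP fluorescence polarization with 1% final DMSO, 2 h at room temperature; stopped with 1× Developer buffer (85% A/15% B) plus IMAP beads 1/400, then 1 h further at room temperature. IC50 from normalized mP versus log compound concentration.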

Sequence of CDK5 (Q00535 whole entry, species assumed): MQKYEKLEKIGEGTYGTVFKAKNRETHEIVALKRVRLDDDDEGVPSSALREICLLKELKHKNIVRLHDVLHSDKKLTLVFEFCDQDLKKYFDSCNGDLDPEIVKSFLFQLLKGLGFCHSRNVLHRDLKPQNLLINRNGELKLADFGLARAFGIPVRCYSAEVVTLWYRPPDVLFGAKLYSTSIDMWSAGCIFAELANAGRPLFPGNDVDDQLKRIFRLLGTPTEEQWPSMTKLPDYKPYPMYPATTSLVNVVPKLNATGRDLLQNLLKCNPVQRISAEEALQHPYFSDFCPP
Sequence of CDK5 (Q15078 whole entry partner, species assumed): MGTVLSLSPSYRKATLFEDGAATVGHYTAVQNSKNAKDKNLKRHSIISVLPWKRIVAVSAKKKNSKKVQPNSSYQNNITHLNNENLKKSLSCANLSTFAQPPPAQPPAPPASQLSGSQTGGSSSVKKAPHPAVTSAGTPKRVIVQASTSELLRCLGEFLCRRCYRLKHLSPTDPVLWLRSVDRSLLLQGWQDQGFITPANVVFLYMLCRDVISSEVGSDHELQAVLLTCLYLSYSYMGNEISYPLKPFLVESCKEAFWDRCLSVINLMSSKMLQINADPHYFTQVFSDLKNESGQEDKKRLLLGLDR
T1 sequence (P06493 whole entry): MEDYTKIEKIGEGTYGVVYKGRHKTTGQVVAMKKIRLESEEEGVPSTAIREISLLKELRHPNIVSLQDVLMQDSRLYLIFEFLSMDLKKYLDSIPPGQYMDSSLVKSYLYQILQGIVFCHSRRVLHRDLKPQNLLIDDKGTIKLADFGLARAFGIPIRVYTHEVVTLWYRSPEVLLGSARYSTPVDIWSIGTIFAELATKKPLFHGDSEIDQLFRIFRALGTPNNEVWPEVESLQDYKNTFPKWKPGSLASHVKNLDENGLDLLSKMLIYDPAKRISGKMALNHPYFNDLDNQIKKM
T1 sequence (P14635 whole entry partner): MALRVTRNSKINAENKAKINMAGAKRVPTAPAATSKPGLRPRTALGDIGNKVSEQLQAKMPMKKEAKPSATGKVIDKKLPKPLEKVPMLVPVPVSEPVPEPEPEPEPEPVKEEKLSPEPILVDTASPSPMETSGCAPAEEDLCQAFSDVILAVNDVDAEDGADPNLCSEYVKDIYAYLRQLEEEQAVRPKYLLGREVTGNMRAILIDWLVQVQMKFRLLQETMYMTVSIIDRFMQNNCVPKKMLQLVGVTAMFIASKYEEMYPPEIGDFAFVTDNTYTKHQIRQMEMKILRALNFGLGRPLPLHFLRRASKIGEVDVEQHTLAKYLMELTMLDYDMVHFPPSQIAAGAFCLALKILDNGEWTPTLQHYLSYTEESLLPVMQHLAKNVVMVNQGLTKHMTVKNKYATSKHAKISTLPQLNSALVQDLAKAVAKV
Sequence of CDK4 (P11802 whole entry, species assumed): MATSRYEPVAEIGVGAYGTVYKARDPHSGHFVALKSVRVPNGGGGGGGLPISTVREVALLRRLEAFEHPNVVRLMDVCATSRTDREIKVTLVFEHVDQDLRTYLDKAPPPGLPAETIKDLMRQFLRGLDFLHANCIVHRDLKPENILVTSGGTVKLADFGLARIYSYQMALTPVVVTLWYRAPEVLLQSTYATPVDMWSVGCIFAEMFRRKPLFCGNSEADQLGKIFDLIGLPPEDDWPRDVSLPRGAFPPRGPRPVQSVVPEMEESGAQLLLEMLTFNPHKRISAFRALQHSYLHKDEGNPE
Sequence of CDK4 (P24385 whole entry partner, species assumed): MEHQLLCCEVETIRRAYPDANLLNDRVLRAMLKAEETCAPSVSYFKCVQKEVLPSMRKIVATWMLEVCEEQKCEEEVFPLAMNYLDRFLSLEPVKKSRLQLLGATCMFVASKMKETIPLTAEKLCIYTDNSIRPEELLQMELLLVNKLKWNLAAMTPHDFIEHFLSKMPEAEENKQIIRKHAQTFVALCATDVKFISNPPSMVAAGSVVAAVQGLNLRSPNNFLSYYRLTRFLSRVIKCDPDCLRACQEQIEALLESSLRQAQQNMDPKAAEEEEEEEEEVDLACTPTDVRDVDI
T4 sequence (P50750 whole entry): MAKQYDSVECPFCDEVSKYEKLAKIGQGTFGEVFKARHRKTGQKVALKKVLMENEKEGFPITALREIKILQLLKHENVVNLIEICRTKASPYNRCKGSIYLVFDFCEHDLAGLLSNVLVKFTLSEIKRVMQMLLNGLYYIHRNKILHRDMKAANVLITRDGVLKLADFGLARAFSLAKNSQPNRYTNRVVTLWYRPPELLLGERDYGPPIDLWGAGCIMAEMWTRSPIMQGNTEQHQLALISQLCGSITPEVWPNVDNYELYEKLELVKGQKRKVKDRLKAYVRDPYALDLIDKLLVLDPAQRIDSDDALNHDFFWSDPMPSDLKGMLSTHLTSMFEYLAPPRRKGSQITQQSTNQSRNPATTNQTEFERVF
T4 sequence (O60563 whole entry partner): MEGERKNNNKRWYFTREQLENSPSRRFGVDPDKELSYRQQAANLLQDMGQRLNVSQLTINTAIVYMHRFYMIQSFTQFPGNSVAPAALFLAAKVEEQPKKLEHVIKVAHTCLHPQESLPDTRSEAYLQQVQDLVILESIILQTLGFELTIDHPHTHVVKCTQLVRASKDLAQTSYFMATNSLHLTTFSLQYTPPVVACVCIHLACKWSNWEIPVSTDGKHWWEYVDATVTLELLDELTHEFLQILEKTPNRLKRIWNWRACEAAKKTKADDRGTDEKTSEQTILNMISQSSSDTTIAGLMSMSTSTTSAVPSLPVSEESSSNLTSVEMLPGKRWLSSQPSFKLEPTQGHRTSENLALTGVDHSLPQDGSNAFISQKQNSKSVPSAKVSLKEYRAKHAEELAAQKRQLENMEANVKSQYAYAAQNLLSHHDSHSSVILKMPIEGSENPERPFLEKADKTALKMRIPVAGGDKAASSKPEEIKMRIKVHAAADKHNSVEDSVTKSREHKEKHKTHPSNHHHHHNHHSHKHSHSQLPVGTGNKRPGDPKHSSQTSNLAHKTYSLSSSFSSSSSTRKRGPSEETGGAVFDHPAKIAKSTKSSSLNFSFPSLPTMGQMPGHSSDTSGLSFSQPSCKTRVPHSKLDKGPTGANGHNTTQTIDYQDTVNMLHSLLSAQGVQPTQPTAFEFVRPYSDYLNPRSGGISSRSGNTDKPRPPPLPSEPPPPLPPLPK
T3 sequence (P50613 whole entry): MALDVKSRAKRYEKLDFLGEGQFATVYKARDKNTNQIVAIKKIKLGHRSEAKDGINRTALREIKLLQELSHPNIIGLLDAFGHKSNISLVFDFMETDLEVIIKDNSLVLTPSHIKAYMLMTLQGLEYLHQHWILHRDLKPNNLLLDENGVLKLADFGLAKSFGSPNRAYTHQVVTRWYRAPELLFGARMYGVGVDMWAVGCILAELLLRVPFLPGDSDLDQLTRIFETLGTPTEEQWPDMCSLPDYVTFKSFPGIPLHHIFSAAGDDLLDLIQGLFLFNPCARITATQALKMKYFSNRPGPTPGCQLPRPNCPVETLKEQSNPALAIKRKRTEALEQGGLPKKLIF
T3 sequence (P51946 whole entry partner): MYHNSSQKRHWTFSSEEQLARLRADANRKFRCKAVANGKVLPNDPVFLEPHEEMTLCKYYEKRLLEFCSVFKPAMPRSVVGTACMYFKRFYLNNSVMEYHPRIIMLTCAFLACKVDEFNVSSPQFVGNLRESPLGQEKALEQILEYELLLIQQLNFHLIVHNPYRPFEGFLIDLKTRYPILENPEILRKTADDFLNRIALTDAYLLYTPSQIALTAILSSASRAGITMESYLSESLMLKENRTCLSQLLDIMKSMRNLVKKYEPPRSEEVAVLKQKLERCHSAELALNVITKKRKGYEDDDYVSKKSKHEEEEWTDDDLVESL
T3 sequence (P51948 whole entry partner): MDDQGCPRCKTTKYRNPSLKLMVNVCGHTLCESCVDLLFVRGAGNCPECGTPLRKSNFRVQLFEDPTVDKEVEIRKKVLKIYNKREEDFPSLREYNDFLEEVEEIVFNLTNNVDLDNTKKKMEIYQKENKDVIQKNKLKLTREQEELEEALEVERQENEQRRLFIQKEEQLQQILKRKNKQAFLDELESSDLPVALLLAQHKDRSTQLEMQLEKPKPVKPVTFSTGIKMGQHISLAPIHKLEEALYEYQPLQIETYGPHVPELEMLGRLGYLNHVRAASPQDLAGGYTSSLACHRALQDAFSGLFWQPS

Row | SMILES | IC50 (CDK5) [µM] | IC50 (CDK4) [µM] | IC50 (CDK1/cyclinB) [µM] | IC50 (CDK2/cyclinA) [µM] | IC50 (CDK7/cyclinH/MAT1) [µM] | IC50 [1] [µM] | IC50 (CDK9/cyclinT1) [µM] | inhibition of neointima formation (neointima formation)
1 | COc1ccc(CNc2nc(N(CCO)CCO)nc3c2ncn3C(C)C)cc1 [CVT-313] | – | – | – | – | – | – | – | greater than 80%
2 | NCCNc1ncccc1-c1ccnc(Nc2cccc(Cl)c2)n1 [Compound 52, N-{3-[2-(3-Chloro-phenylamino)-pyrimidin-4-yl]-pyridin-2-yl}-ethane-1,2-diamine] | < 5 | < 5 | < 5 | < 5 | < 5 | < 5 | < 5 | –
3 | CNCCNc1nccc(-c2ccnc(Nc3cccc(Cl)c3)n2)c1C [Compound 3, N-{4-[2-(3-Chloro-phenylamino)-pyrimidin-4-yl]-3-methyl-pyridin-2-yl}-N′-methyl-ethane-1,2-diamine] | < 5 | < 5 | < 5 | < 5 | < 5 | < 5 | < 5 | –

Continued, in another order:

Row | IC50 (CDK5) [µM] | IC50 (CDK4) [µM] | IC50 (CDK1/cyclinB) [µM] | IC50 (CDK2/cyclinA) [µM] | IC50 (CDK7/cyclinH/MAT1) [µM] | IC50 [1] [µM] | IC50 (CDK9/cyclinT1) [µM] | SMILES | inhibition of neointima formation (neointima formation)
4 | < 5 | < 5 | < 5 | < 5 | < 5 | < 5 | < 5 | N#Cc1cccc(Nc2nccc(-c3cccnc3NCCCN)n2)c1 [Compound 60, 3-{4-[2-(3-Amino-propylamino)-pyridin-3-yl]-pyrimidin-2-ylamino}-benzonitrile] | –
5 | < 5 | < 5 | < 5 | < 5 | < 5 | < 5 | < 5 | NCCCNc1ncccc1-c1ccnc(Nc2cccc(Cl)c2)n1 [Compound 55, N-{3-[2-(3-Chloro-phenylamino)-pyrimidin-4-yl]-pyridin-2-yl}-propane-1,3-diamine] | –
